“And” between values parts separate entries of the source, which are not always exact repeats. Equal values may be shown once.
Key:
[1] = target: T1, PEGylated BSA with 1 PEG chain per BSA molecule (Bos taurus, UniProt P02769); assay: Viscosity of PEGylated BSA with 1 PEG chain per BSA molecule (Example 16); assay type: physicochemical; conditions: Table 8; versus 228.6 cP with no excipient
T1 construct: purchased Aldrich A7906
Protocol: To a beaker was added 200 mL of a phosphate buffered saline (Aldrich Cat. #P4417) and 4 g of BSA (Aldrich Cat. #A7906) and mixed with a magnetic bar. Next 400 mg of methoxy polyethylene glycol maleimide, MW=5,000, (Aldrich Cat. #63187) was added. The reaction mixture was allowed to react overnight at room temperature. The following day, 20 drops of HCl 0.1 M were added to stop the reaction. […] The reaction mixture was placed in an Amicon centrifuge tube with a molecular weight cutoff (MWCO) of 30 kDa and concentrated to a few milliliters. Next the sample was diluted 20 times with a histidine buffer, 50 mM at a pH of approximately 6, followed by concentrating until a high viscosity fluid was obtained.
The viscometer measurements were completed at ambient temperature.

bevacizumab (AVASTIN®) = assay: Viscosity of AVASTIN with caffeine, microVisc (Example 39); assay type: physicochemical; conditions: for % Viscosity Reduction from Excipient: 10 mg/mL caffeine vs no excipient; for Viscosity with 10 mg/mL added caffeine excipient: 10 mg/mL caffeine, 25 mM histidine HCl
Protocol: Viscosity was measured by RheoSense microVisc and concentration was determined by absorbance at 280 nm (extinction coefficient, 1.605 mL/mg). […].

BGG = conditions: Table 15; versus 130.6 cP with no excipient
Protocol: Each buffer solution contained different excipient or combination of excipients as described in the table below (Table 15). The viscosity of the solutions was measured as described in previous examples.

[2] = tested on: bovine gamma globulin (BGG); assay: Normalized viscosity of BGG with caffeine and a secondary excipient (Example 40); assay type: physicochemical; conditions: BGG about 280 mg/mL, 20 mM histidine pH 6, 25° C.
omalizumab = assay: DLS viscosity of concentrated omalizumab with nicotinamide mononucleotide and itaconic acid (Example 52); assay type: physicochemical; conditions: 20 mM His HCl pH 6, excipient stock 1 M or solubility limit
Protocol: These substances were used as excipients in the following experiment.
The resulting concentrated formulation was analyzed by A280 for protein concentration by making serial dilutions of the concentrated formulation in 20 mM His HCl, loading 100 microliters of each dilution into a UV clear 96 half-well microplate (Greiner Bio-One, Austria), and measuring absorbance at a wavelength of 280 nm with a Synergy HT plate reader (BioTek, Winooski, VT). The blanked, path-length-corrected A280 measurement for each sample was then divided by the respective extinction coefficient and multiplied by the dilution factor to determine the protein concentration. […] The concentrated protein formulation was then combined with the stock excipient solution or a control at a ratio of 9 parts protein formulation: 1 part excipient solution or buffer (for the control), and aliquots were added to the wells of a 384 well microplate (Aurora Microplates, Whitefish, MT). […] After the microplate was shaken, 2 microliters of a 5-fold dilution of polyethylene glycol surface-modified gold nanoparticles having a diameter of 100 nm (nanoComposix, San Diego, CA) in 20 mM His HCl were added to each sample well. […]

[3] = target: PEGylated lysozyme with multiple PEG chains per lysozyme molecule (Gallus gallus, UniProt P00698); conditions: Table 10
Protocol: The solution was mixed by gently shaking and the viscosity was measured by a RheoSense microVisc equipped with an A10 channel (100 micron depth) at a shear rate of 500 s-1. The viscometer measurements were completed at ambient temperature.

[4] = tested on: bovine gamma globulin (BGG); assay: Viscosity of 280 mg/mL BGG formulations with excipient compounds, cone and plate viscometer (Examples 1, 2, 4-6); assay type: physicochemical

T1 sequence (P02769 25-607): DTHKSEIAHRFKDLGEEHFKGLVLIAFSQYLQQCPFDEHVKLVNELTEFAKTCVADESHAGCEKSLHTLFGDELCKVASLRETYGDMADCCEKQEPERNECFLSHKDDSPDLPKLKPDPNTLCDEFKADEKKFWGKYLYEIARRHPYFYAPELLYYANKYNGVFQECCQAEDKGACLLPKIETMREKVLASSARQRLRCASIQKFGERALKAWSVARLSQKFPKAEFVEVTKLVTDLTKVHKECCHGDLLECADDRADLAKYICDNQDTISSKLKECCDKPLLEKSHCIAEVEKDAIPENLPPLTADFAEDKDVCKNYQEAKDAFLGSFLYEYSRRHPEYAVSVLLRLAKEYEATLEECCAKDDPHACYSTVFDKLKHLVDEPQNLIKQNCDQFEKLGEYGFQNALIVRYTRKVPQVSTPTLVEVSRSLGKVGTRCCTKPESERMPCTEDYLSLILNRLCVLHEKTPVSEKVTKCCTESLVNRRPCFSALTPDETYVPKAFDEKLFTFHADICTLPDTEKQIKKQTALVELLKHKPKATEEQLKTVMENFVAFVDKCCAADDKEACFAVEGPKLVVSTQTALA
Chain of PEGylated lysozyme with multiple PEG chains per lysozyme molecule (P00698 19-147): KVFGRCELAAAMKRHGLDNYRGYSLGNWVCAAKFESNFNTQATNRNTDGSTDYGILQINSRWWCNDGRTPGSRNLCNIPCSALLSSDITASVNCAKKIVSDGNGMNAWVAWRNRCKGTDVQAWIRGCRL

## Alpha-Cyclodextrin sulfated Na salt
[1]
  Viscosity Reduction: 34%

## Cn1c(=O)c2c(ncn2C)n(C)c1=O [Caffeine]
Bevacizumab (AVASTIN®); AVASTIN 190 mg/mL
  % Viscosity Reduction from Excipient: 36%
  Viscosity with 10 mg/mL added caffeine excipient: 13 cP
Bevacizumab (AVASTIN®); AVASTIN 213 mg/mL
  % Viscosity Reduction from Excipient: 73%
  Viscosity with 10 mg/mL added caffeine excipient: 22 cP
Bevacizumab (AVASTIN®); AVASTIN 266 mg/mL
  % Viscosity Reduction from Excipient: 62%
  Viscosity with 10 mg/mL added caffeine excipient: 113 cP
BGG
  Viscosity Reduction (%): 33%
[2]; Excipient A caffeine 15 mg/mL, no Excipient B
  Normalized Viscosity: 0.77

## NC(=O)c1ccc[n+]([C@@H]2O[C@H](COP(=O)([O-])O)[C@@H](O)[C@H]2O)c1 [Nicotinamide mononucleotide]
omalizumab
  DLS Viscosity, Replicate 1: 33.6 cP
  DLS Viscosity, Replicate 2: 22.2 cP

## N=C(N)NCCC[C@H](N)C(=O)O [Arginine, reference compound]
BGG
  Viscosity Reduction (%): 41%
[2]; Excipient A caffeine 15 mg/mL + Excipient B 20 mg/mL
  Normalized Viscosity: 0.63

## CC(=O)[O-].[K+] [K acetate, potassium acetate]
[1]
  Viscosity Reduction: 60%
[3]; PEGylated lysozyme, 500 s-1, ambient temperature, excipient 20 mg/mL
  Viscosity (cP): 22.6 cP
[3]; versus 24.6 cP with no excipient
  Viscosity Reduction: 8%

## O=C([O-])c1ccccc1O.[Na+] [Sodium salicylate]
[4]
  Viscosity Reduction: 28% and 34%
[4]; pH 6
  Viscosity (cP): 57 cP and 52 cP
